Columns and labels:
Hs-578T = experiment: cells; type: functional; conditions: Homo sapiens, time 48 hrs
Description: Growth inhibition of human Hs-578T cells incubated for 48 hrs by sulforhodamine B assay

[1] = target: Serine/threonine-protein kinase Sgk1 (Homo sapiens) (UniProt O00141); experiment: Inhibition of human SGK1 at 10 uM relative to control; conditions: Sf21
[2] = target: Fibroblast growth factor receptor 2 (Homo sapiens) (UniProt P21802); experiment: Inhibition of N-terminal His6-tagged human FGFR2 (456 to 770 residues) expressed in baculovirus-infected Sf21 cells assessed as residual activity at 10 uM relative to control
Sequence of Fibroblast growth factor receptor 2 (Homo sapiens) (P21802 22-821 limits assumed): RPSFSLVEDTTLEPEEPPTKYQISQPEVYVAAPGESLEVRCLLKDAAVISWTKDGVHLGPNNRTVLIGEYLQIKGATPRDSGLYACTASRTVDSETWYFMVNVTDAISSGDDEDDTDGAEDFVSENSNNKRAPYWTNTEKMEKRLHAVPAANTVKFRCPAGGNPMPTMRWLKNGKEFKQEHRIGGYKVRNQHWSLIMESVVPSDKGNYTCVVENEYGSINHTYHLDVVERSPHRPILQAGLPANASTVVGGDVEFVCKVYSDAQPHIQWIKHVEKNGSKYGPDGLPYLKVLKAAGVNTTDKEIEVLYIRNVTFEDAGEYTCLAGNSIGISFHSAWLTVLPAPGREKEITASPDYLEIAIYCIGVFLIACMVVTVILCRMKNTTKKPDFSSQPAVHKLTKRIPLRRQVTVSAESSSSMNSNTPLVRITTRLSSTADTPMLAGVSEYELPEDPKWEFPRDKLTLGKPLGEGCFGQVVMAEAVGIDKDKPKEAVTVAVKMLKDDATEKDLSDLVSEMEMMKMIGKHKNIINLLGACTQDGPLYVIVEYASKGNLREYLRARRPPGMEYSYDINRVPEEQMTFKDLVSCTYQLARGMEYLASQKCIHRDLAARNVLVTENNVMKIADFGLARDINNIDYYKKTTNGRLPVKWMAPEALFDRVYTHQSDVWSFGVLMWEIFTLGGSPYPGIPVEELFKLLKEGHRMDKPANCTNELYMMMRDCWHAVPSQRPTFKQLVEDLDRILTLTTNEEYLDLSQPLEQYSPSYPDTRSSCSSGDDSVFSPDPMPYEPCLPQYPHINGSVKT

[3] = target: Ribosomal protein S6 kinase alpha-1 (Homo sapiens) (UniProt Q15418); experiment: Inhibition of recombinant full length N-terminal His6-tagged human RSK1 expressed in Sf21 insect cells at 10 uM relative to control
Sequence of Ribosomal protein S6 kinase alpha-1 (Homo sapiens) (Q15418 whole entry): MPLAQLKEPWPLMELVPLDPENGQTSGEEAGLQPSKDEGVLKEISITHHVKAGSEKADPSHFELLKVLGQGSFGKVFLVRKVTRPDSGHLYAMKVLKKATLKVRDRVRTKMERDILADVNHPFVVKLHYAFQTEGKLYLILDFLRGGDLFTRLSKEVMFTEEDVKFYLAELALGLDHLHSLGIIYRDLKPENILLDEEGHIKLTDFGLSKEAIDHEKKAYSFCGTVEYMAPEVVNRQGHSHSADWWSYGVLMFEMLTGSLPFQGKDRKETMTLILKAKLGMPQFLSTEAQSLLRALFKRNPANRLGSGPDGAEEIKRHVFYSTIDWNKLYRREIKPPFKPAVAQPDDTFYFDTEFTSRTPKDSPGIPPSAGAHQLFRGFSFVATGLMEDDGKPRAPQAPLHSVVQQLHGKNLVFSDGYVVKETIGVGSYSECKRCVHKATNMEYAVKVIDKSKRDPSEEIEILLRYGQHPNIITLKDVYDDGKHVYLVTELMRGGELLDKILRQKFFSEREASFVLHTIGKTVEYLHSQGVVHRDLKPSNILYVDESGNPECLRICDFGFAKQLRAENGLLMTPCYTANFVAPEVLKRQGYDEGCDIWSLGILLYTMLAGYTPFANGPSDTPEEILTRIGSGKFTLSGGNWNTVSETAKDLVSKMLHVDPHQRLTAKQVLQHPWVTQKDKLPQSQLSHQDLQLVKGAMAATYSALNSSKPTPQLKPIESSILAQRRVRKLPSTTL

HOP-62 = experiment: cells; type: functional; conditions: Homo sapiens, time 48 hrs
Description: Growth inhibition of human HOP-62 cells incubated for 48 hrs by sulforhodamine B assay

TK-10 = experiment: cells; type: functional; conditions: Homo sapiens, time 48 hrs
Description: Growth inhibition of human TK-10 cells incubated for 48 hrs by sulforhodamine B assay

[4] = Cytotoxicity against human HFF-1 cells assessed as cell growth inhibition at 1 uM by MTT assay relative to control; type: cell-based; conditions: read-out: GI
A549 = experiment: cells; type: functional; conditions: Homo sapiens, time 48 hrs
Description: Growth inhibition of human A549/ATCC cells incubated for 48 hrs by sulforhodamine B assay

[5] = target: RAF proto-oncogene serine/threonine-protein kinase (Homo sapiens) (UniProt P04049); experiment: Inhibition of recombinant N-terminal GST-tagged human CRAF (306 to 648 residues) expressed in Sf9 cells assessed as residual activity at 10 uM relative to control
Sequence of RAF proto-oncogene serine/threonine-protein kinase (Homo sapiens) (P04049 whole entry, the tested form may be a part): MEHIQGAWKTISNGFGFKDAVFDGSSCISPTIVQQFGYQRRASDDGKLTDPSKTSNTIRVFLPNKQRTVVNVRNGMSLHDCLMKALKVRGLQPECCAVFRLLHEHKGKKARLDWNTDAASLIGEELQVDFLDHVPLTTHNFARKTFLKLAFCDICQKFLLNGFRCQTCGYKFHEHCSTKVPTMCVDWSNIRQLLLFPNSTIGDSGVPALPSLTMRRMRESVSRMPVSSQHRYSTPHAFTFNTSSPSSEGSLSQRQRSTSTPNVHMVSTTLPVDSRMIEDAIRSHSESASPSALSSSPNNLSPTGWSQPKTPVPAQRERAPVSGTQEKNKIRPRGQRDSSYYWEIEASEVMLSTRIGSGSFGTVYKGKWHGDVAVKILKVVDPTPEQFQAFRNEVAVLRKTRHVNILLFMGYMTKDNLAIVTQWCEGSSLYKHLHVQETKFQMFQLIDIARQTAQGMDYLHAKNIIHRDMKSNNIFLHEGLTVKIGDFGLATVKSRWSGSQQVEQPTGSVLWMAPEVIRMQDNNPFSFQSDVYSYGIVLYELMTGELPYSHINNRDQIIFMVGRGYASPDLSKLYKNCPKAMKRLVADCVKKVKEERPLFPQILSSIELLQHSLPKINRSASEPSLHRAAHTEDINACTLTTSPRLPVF

[6] = target: Ephrin type-B receptor 2 (Homo sapiens) (UniProt P29323); experiment: Inhibition of N-terminal His6-tagged human EphB2 (560 to end residues) expressed in baculovirus-infected Sf21 cells assessed as residual activity at 10 uM relative to control
Sequence of Ephrin type-B receptor 2 (Homo sapiens) (P29323 whole entry, the tested form may be a part): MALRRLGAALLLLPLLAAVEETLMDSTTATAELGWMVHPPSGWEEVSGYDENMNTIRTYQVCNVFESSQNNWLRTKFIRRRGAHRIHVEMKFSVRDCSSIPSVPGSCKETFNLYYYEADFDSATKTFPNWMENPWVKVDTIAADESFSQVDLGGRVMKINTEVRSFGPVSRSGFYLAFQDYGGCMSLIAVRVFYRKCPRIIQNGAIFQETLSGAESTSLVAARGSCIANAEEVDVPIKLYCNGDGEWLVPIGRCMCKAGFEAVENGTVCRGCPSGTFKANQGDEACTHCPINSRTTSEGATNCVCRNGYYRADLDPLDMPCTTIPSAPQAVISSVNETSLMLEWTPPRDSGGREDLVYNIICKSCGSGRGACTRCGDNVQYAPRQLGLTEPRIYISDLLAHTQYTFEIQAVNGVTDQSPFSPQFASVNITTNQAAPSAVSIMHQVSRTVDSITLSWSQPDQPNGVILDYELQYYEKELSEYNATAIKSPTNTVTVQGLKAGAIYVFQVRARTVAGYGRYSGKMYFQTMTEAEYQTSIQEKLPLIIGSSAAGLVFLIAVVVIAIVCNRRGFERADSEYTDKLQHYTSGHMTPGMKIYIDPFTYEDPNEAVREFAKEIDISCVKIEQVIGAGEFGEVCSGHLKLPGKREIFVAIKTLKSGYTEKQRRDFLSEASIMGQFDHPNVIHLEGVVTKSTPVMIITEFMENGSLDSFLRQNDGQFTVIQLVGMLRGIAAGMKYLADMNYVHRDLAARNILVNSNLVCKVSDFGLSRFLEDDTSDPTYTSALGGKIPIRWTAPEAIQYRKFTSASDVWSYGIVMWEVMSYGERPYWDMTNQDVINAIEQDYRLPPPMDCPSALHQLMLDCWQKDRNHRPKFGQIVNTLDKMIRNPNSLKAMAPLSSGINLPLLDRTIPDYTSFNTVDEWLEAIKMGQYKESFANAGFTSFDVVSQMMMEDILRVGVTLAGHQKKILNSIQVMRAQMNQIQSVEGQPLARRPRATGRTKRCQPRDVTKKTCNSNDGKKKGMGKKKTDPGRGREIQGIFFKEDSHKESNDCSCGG

[7] = target: Serine/threonine-protein kinase B-raf (Homo sapiens) (UniProt P15056); experiment: Inhibition of recombinant N-terminal GST-tagged human BRAF (417 to 766 residues) expressed in Sf9 cells assessed as residual activity at 10 uM relative to control
MDA-MB-231 = experiment: cells; type: functional; conditions: Homo sapiens, time 48 hrs
Description: Growth inhibition of human MDA-MB-231/ATCC cells incubated for 48 hrs by sulforhodamine B assay

[8] = tested on: Panel breast (Carcinoma cell lines); experiment: cells; type: functional; conditions: Homo sapiens, time 48 hrs
Description: Growth inhibition of human Panel breast (Carcinoma cell lines) incubated for 48 hrs by sulforhodamine B assay

[9] = target: High affinity nerve growth factor receptor (Homo sapiens, UniProt P04629); experiment: Inhibition of recombinant N-terminal His6-tagged human TrkA (440 to end residues) expressed in baculovirus infected Sf21 insect cells at 10 uM relative to control
Sequence of High affinity nerve growth factor receptor (P04629 33-796 limits assumed): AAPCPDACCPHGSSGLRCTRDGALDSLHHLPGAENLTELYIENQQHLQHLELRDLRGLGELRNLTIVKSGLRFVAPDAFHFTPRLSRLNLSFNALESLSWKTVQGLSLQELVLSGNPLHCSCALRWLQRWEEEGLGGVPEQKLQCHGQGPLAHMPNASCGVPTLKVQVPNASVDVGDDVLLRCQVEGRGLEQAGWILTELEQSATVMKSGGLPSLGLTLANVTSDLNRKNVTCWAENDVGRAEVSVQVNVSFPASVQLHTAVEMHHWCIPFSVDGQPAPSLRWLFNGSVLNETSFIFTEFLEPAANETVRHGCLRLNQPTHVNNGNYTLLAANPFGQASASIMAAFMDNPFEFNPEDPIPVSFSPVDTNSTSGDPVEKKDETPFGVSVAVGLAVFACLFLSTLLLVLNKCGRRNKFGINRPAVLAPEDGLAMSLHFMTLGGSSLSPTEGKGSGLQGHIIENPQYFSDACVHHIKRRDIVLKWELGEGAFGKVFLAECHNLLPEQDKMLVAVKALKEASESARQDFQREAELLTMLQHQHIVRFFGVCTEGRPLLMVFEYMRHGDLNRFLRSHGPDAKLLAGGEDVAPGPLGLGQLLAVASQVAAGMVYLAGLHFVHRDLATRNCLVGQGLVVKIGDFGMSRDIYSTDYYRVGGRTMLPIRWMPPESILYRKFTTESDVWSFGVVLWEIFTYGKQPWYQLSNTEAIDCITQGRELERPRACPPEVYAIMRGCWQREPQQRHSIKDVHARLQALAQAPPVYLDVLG

[10] = target: Receptor-type tyrosine-protein kinase FLT3 (Homo sapiens) (UniProt P36888); experiment: Inhibition of human FLT3 assessed as residual activity at 10 uM relative to control
MDA-MB-468 = experiment: cells; type: functional; conditions: Homo sapiens, time 48 hrs
Description: Growth inhibition of human MDA-MB-468 cells incubated for 48 hrs by sulforhodamine B assay

[11] = tested on: Tyrosine-protein kinase ABL1 (Homo sapiens), P00519 [T315I]; experiment: Inhibition of recombinant N-terminal His6-tagged human ABL T315I mutant (27 to end residues) expressed in baculovirus infected Sf21 insect cells assessed as residual activity at 10 uM relative to control
[12] = target: Serine/threonine-protein kinase mTOR (Homo sapiens) (UniProt P42345); experiment: Inhibition of human mTOR at 10 uM relative to control

Sequence of Serine/threonine-protein kinase Sgk1 (Homo sapiens) (O00141 whole entry, the tested form may be a part): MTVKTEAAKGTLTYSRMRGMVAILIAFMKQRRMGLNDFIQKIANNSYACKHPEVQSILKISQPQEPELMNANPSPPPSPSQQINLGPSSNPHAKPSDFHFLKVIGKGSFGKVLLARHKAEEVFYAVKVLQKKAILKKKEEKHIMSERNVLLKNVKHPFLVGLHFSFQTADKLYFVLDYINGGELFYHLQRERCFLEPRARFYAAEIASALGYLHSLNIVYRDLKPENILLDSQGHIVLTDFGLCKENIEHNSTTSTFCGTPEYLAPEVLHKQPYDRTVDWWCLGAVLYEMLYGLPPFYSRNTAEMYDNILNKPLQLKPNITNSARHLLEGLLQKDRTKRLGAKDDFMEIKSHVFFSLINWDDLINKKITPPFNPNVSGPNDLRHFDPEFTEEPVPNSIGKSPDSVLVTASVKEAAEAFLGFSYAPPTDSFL

CN1CCN(CCCOc2cccc3nc(Nc4ccc(Cl)c(C(F)(F)F)c4)ccc23)CC1
GI50 (Hs-578T): 2000 nM
inhibition [1]: < 60%
Activity [2]: < 60%
inhibition [3]: < 60%
GI50 (HOP-62): 1700 nM
GI50 (TK-10): 1800 nM
inhibition at 1 µM [4]: 12.7%
GI50 (A549): 1720 nM
Activity [5]: < 60%
Activity [6]: < 60%
Activity [7]: < 60%
GI50 (MDA-MB-231): 1470 nM
GI50 [8]: 1690 nM
TGI [8]: 3630 nM
CC50 ([8]; read-out: LC50 (the source's name)): 11200 nM
inhibition [9]: 96%
Activity [10]: 66%
GI50 (MDA-MB-468): 1600 nM
Activity [11]: < 60%
inhibition [12]: < 60%

Source: ChEMBL document CHEMBL4715724, “Novel 5-substituted-2-anilinoquinolines with 3-(morpholino or 4-methylpiperazin-1-yl)propoxy moiety as broad spectrum antiproliferative agents: Synthesis, cell based assays and kinase screening” (Bioorg Med Chem Lett, 2016)
